The values below come from PubChem BioAssay AID686957 (The Scripps Research Institute Molecular Screening Center, 2013).

Calls of active or inactive are those of the source. How the calls were made is not given here.

The target of this assay is T-cell receptor (TCR)-CD3 interaction, human (TCR alpha chain TRAV4). As to the kind of experiment: IC50 for blocking TCR-CD3 binding – biochemical, fluorescence, TAMRA-labeled TCR probe, dose response (AID 686957).

Regarding `Cc1cccc(C(=O)NCC(=O)NNC(=O)c2ccccc2O)c1`, the IC50 is > 94 µM (inactive).

Consider `COCCn1c(=NC(=O)c2cc(-c3cccs3)nc3ccccc23)sc2cc(S(N)(=O)=O)ccc21`, for which the IC50 is > 94.1 µM (inactive).

As for `COc1ccc(C(=O)NC(=S)NNC(=O)c2ccc(O)cc2)cc1[N+](=O)[O-]`, the IC50 was > 94.1 µM (inactive).

Take `O=C(NNC(=S)NC1CCCCC1)c1ccccc1O`: the IC50 is > 94.1 µM (inactive).

Take `Cc1cc2oc3ccc(NCCCn4ccnc4)cc3c(=O)c2cc1C`: the IC50 was > 94.1 µM (inactive).

Regarding `CC/C(=N\NC(=O)c1ccccc1O)c1c(O)n(Cc2ccccc2)c(=O)[nH]c1=O`, the IC50 is > 94.1 µM (inactive).

In the case of `O=C(O)c1ccccc1NS(=O)(=O)c1ccc(N/N=C/c2ccc(O)c(O)c2)c([N+](=O)[O-])c1`, the IC50 entry is “inactive”.

On to `O=C1C(=Cc2cn(-c3ccccc3)nc2-c2ccc(OCc3ccccc3)cc2)SC(=S)N1CCS(=O)(=O)O`, for which the IC50 was > 94.2 µM (inactive).

Turning to `COc1ccccc1N(C)S(=O)(=O)c1ccc(C(=O)NNC(=O)c2ccccc2O)cc1`, the IC50 was > 94.1 µM (inactive).

For the compound `CCc1ccc(NC(=O)NNC(=O)c2ccc3ccccc3c2O)cc1`, the IC50 is > 94.1 µM (inactive).

`Cc1cc(C(=O)N/N=C/c2cc(Br)cc([N+](=O)[O-])c2O)c2ccccc2n1`: the IC50 is > 94.1 µM (inactive).

In the case of `O=C1NC(=S)NC1=Cc1ccco1`, the IC50 is > 94.1 µM (inactive).

Take `O=C(CNC(=O)c1ccccc1F)NNC(=O)c1ccccc1O`: the IC50 is > 94.1 µM (inactive).

Turning to `COc1cccc(C(=O)NNC(=O)c2ccc3ccccc3c2O)c1`, the IC50 was > 94.1 µM (inactive).

`CC(=O)c1ccc(NC(=O)CN2C(=O)/C(=C/C(C)=C/c3ccccc3)SC2=S)cc1`: the IC50 was > 94.1 µM (inactive).

In the case of `COc1ccc(-c2cnnn2-c2ccc(NC(=O)c3ccc(S(=O)(=O)N4CCCCC4)cc3)cc2)cc1OC`, the IC50 entry was “inactive”.

For the compound `Cn1c(O)c(/C=N/NC(=O)c2cc3ccccc3cc2O)c2ccccc21`, the IC50 was > 94.1 µM (inactive).

As to `NC(=O)CCC1NC(=S)N(Cc2ccccc2)C1=O` (configuration not stated), the IC50 was > 94.1 µM (inactive).

On to `O=C(NNC(=O)c1ccc2ccccc2c1O)NC1CCCCC1`, for which the IC50 was > 94.1 µM (inactive).

In the case of `N#C/C(=C\c1ccc(O)c(O)c1)C(=O)Nc1cccc2ncccc12`, the IC50 is 8.85 µM.

Take `COc1ccc(NC(=O)NNC(=O)c2ccc3ccccc3c2O)cc1OC`: the IC50 was > 94.1 µM (inactive).

Consider `O=[N+]([O-])c1cc(Br)c(O)c(/C=N/Nc2nnnn2-c2cccc3ccccc23)c1`, for which the IC50 is > 94.1 µM (inactive).

Take `Cc1nc(S/C(=C\c2ccc(-c3ccc(C(=O)O)c(Cl)c3)o2)C(=O)O)n[nH]1`: the IC50 is > 94.1 µM (inactive).

As for `O=C(CNC(=O)c1cccc(Br)c1)N/N=C/c1cc(Br)cc(Br)c1O`, the IC50 was > 94.1 µM (inactive).

With `O=C(NNC(=O)c1cc2ccccc2cc1O)Nc1ccc(F)cc1F`, the IC50 is > 94.1 µM (inactive).

For the compound `CCCCCC(=O)NC(=S)NC1C2CC3CC(C2)CC1C3` (configuration not stated), the IC50 was > 94.1 µM (inactive).

In the case of `O=c1c(O)cccc2cc(O)c(O)c(O)c12`, the IC50 is 4.39 µM.

In the case of `Cc1ccc(S(=O)(=O)N2CCC(C(=O)NNC(=O)c3ccccc3O)CC2)cc1`, the IC50 is > 94.1 µM (inactive).

As to `CC(C)C(=O)Nc1ccc(C(=O)NNC(=S)NC(=O)c2ccccc2[N+](=O)[O-])cc1`, the IC50 is > 94.1 µM (inactive).

Regarding `COc1ccc(/C=C2\SC(=O)N(CC(=O)NNC(=O)c3ccccc3O)C2=O)cc1`, the IC50 was > 94.1 µM (inactive).

For `Cc1ccc(/C=C2\SC(=S)N(CCC(=O)NNC(=O)c3ccccc3O)C2=O)cc1`, the IC50 was > 94.1 µM (inactive).

For the compound `CNC(=S)NNC(=O)c1oc2nc(-c3ccccc3)cc(-c3ccco3)c2c1N`, the IC50 is > 94.1 µM (inactive).

For the compound `COc1ccc(C(=O)NNC(=S)NC(=O)c2cccnc2)cc1`, the IC50 was > 94.1 µM (inactive).

As for `O=C(NC(C(=O)N/N=C/c1cc([N+](=O)[O-])ccc1O)c1n[nH]c(=O)c2ccccc12)c1ccccc1` (configuration not stated), the IC50 was > 94.1 µM (inactive).

Regarding `COc1ccc(C)cc1NC(=O)NNC(=O)c1cc2ccccc2cc1O`, the IC50 is > 94.1 µM (inactive).

For `O=C1C=C(NCCc2cc(Br)c(O)c(Br)c2)C(=O)c2ncccc21`, the IC50 entry was “inactive”.

For the compound `Cn1c(SCC(=O)NNC(=O)c2ccccc2O)nnc1-c1ccccc1`, the IC50 was > 94.2 µM (inactive).

For `O=C(CCN1C(=O)/C(=C\c2ccccc2)SC1=S)NNC(=O)c1ccccc1O`, the IC50 is > 94.1 µM (inactive).

As to `CNC(=S)NNC(=O)c1cccn(Cc2ccc(Cl)cc2Cl)c1=O`, the IC50 is > 94.1 µM (inactive).

With `O=C(CCc1ccc(S(=O)(=O)N2CCOCC2)cc1)N/N=C/c1ccc(O)c(O)c1O`, the IC50 was > 94.1 µM (inactive).

For `Cc1ccc(O)c(-c2cc(C(=O)Nc3ccc(S(=O)(=O)Nc4nccc(C)n4)cc3)[nH]n2)c1`, the IC50 was > 94.1 µM (inactive).

As to `O=C(CCl)NNC(=O)c1c(O)c2ccccc2[nH]c1=O`, the IC50 is > 94 µM (inactive).

In the case of `CC(C)C(=O)Nc1ccc(C(=O)NNC(=S)NC(=O)c2ccco2)cc1`, the IC50 was > 94.1 µM (inactive).

For `Cc1cc(Br)cc(/C=N/NC(=O)c2ccc3c(c2)OCO3)c1O`, the IC50 was > 94.1 µM (inactive).

`COc1cc(O)c(/C=N/NC(=O)c2ccncc2)c(OC)c1[N+](=O)[O-]`: the IC50 is > 94.1 µM (inactive).

With `CNC(=S)NNC(=O)c1cccn(Cc2cccc(C(F)(F)F)c2)c1=O`, the IC50 was > 94.1 µM (inactive).

Turning to `CCCCCCn1c(=O)c(C(=O)Nc2ncccc2O)c(O)c2ccccc21`, the IC50 was > 94.2 µM (inactive).

`O=c1c2ccccc2nc(COc2ccccc2)n1/N=C/c1cc([N+](=O)[O-])ccc1O`: the IC50 was > 94.1 µM (inactive).

Consider `CCOc1ccc(Nc2ccc(N)c(S(=O)(=O)O)c2)cc1`, for which the IC50 was > 94.1 µM (inactive).

In the case of `Cc1ccc(S(=O)(=O)N2CCC(C(=O)NNC(=O)c3ccccc3O)CC2)cc1C`, the IC50 was > 94.1 µM (inactive).

As to `Nc1nnc(CC(=O)N/N=C\c2cc([N+](=O)[O-])ccc2O)s1`, the IC50 was > 94.1 µM (inactive).

As for `COc1ccc(NC(=O)NNC(=O)c2cc3ccccc3cc2O)cc1`, the IC50 was > 94.1 µM (inactive).

For `CCOc1ccc(NC(=O)NNC(=O)c2ccc3ccccc3c2O)cc1`, the IC50 was > 94.1 µM (inactive).

For the compound `Cc1cc(=O)oc2cc(OCC(=O)N/N=C/c3cc([N+](=O)[O-])ccc3O)ccc12`, the IC50 was > 94.1 µM (inactive).

Turning to `Cc1cc(C)c(-c2cc(NC(=O)COC(=O)c3ccc(NC(=O)CC#N)cc3)n(-c3ccccc3)n2)cc1C`, the IC50 was > 94.1 µM (inactive).

As to `O=C(NNC(=O)c1ccc2ccccc2c1O)c1ccccc1Cl`, the IC50 was > 94.1 µM (inactive).

For `O=C(N/N=C/c1cc([N+](=O)[O-])ccc1O)c1cccc(N2CCCC2=O)c1`, the IC50 is > 94.1 µM (inactive).

On to `O=C(NNC(=O)c1ccc2ccccc2c1O)Nc1ccc(F)cc1`, for which the IC50 is > 94.1 µM (inactive).

As to `COc1ccccc1NC(=O)NNC(=O)c1cc2ccccc2cc1O`, the IC50 was > 94.1 µM (inactive).

Regarding `O=C(N/N=C/c1cc(Br)cc(Cl)c1O)c1ccc2c(c1)OCO2`, the IC50 is > 94.1 µM (inactive).

Regarding `COc1cc(/C=N/NC(=O)c2cc(O)cc(O)c2)ccc1OC(=O)c1ccccc1`, the IC50 was > 94.1 µM (inactive).

On to `Cc1cc(C(=O)N/N=C/c2cc(Cl)cc([N+](=O)[O-])c2O)n[nH]1`, for which the IC50 is > 94.1 µM (inactive).

Consider `Cc1nc(S/C(=C/c2ccc(-c3ccc(C(=O)O)cc3)o2)C(=O)O)n[nH]1`, for which the IC50 is > 94.2 µM (inactive).

Consider `COC(=O)CC1(C(=O)OC)Nc2cc(Cl)c(Cl)cc2S(=O)(=O)N1O` (configuration not stated), for which the IC50 was > 94.2 µM (inactive).

As for `O=C(Cc1ccccc1)NNC(=S)NC(=O)c1cccnc1`, the IC50 was > 94.1 µM (inactive).

`C/C(=N\NC(=O)c1nnn(-c2nonc2N)c1CN(C)c1ccccc1)c1ccccc1O`: the IC50 was > 94.1 µM (inactive).

Turning to `Cc1cc(C)c(C)c(S(=O)(=O)N2CCC(C(=O)NNC(=O)c3ccccc3O)CC2)c1C`, the IC50 is > 94.1 µM (inactive).

With `Cc1cc([N+](=O)[O-])cc(/C=N\NC(=O)C2COc3ccccc3O2)c1O` (configuration not stated), the IC50 was > 94.2 µM (inactive).

Take `COc1ccc(/C=N\NC(=O)c2cc(O)c(O)c(O)c2)cc1CN1CCN(c2ccc(F)cc2)CC1`: the IC50 is > 94.2 µM (inactive).

As for `O=C(CN1C(=O)S/C(=C\c2ccccc2)C1=O)NNC(=O)c1ccccc1O`, the IC50 was > 94.1 µM (inactive).

As for `COc1ccccc1C(=O)NNC(=O)c1ccc(NC(=O)CC(C)C)cc1`, the IC50 was > 94.1 µM (inactive).

`O=C(N/N=C/c1ccc(O)c(O)c1)N/N=C/c1ccc(O)c(O)c1`: the IC50 is 1.03 µM.

With `COC(=O)C1CCN(C(=O)c2cc(-c3ccco3)nc3ccccc23)CC1`, the IC50 was > 94.1 µM (inactive).

As to `CN(CCC#N)C(=O)COC(=O)c1c2c(nc3ccccc13)/C(=C\c1ccco1)CC2`, the IC50 was > 94.1 µM (inactive).

In the case of `O=C(NNC(=O)c1ccccc1O)c1ccccc1O`, the IC50 is > 93.9 µM (inactive).

`O=C(NNC(=S)NC(=O)c1cccc([N+](=O)[O-])c1)c1ccc(O)cc1`: the IC50 was > 94 µM (inactive).

As for `O=C(N/N=C/c1cn(Cc2cccc(F)c2)c2ccccc12)c1cc(O)cc(O)c1`, the IC50 was > 94.1 µM (inactive).

With `O=C(N/N=C/c1c(O)n(CCc2ccccc2)c(=O)[nH]c1=O)c1ccccc1O`, the IC50 is > 94 µM (inactive).

As to `COc1ccc(C(=O)NNC(=S)NC(=O)c2cccs2)cc1`, the IC50 was > 94 µM (inactive).

`CCn1c(C)nc2cc(C(=O)NNC(=S)NC(=O)c3ccccc3)ccc21`: the IC50 was > 94.1 µM (inactive).

For `O=C1NC(=S)S/C1=C\C=C\c1ccc([N+](=O)[O-])o1`, the IC50 is > 94.1 µM (inactive).

As for `O=C(N/N=C/c1c(O)n(Cc2ccco2)c(=O)[nH]c1=O)c1ccccc1`, the IC50 was > 94.2 µM (inactive).

What is called IC50 is the concentration that inhibits the measured activity by half.
